Test [1] has as its system Wistar rats. Nature of the test: Blood glucose after glucose load in rats with alloxan-induced diabetes. The format is in vivo. The conditions noted are these: 100 mg/kg; for Glucose concentration: glucose load 4 g/kg 4 hours after drug; for time after glucose administration at which glucose indicators normalized: alloxan diabetes, glucose load 4 g/kg. As for the experimental part:
The study was conducted on Wistar rats weighing 220-250 g. All animals were subjected to two weeks of observation prior to the experiment to exclude infection. Rats were housed in standard cages, 5 individuals in each. The animals stayed in a room with a temperature of 22±2°C, air humidity 60-70% and in natural lighting (12/12 in a day/night cycle). The animals had free access to water and standard laboratory feed ad libitum.
Diabetes was caused by a single intraperitoneal administration of alloxan at a dose of 170 mg/kg bw. The development of diabetes was observed on the basis of the main symptoms (polydipsia, polyphagia), glycosuria and hyperglycemia. Animals with high glucose levels of at least 14 mmol/L were selected for the experiment.
Animals were randomized into 6 groups of 8 individuals each. The first group, the control group, was formed from healthy animals without diabetes. The control group (healthy animals) received NaCl 1 ml/kg; Group 2. - diabetes mellitus (DM), received NaCl 1 ml/kg; Group 3. - DM + Betulin, at a dose of 100 mg/kg; Group 4. - DM + Lupeol, at a dose of 100 mg/kg; Group 5 - DM + Betulonic acid, at a dose of 100 mg/kg; Group 6 - DM + Betulinic acid, at a dose of 100 mg/kg; Group 7 - DM + Betulin-3,28-diacetate, at a dose of 100 mg/kg.
4 hours after drug administration, all animals intragastrically received a 40% glucose solution at a dose of 4 g/kg. The time of administration is determined in the available literature on its pharmacokinetics - peak plasma levels of lupane triterpenoids in rats are observed 3-4 hours after intragastric administration.
Peripheral blood glucose was determined using a Roche AccuCheck Active meter (USA) before and after glucose administration every 60 minutes for 5 hours. A drop of blood was taken from the tail tip incision.

The target of test [2] is T1, rat liver glucose-6-phosphate dehydrogenase (DG-6-P) (Rattus norvegicus, UniProt P05370).
T1 construct: an additional enzyme purification procedure was performed; from tissue; host or cells: rat liver (5.6-fold purified enzyme preparation)
The test is described as follows: Effect on DG-6-P activity in 5.6-fold purified rat liver enzyme. The format is biochemical. Conditions: for remaining activity at 5 µM / remaining activity at 25 µM: read-out: % of control (DG-6-P activity). An excerpt: (§1) Rat liver glycogen phosphorylase, rat liver and skeletal muscle hexokinase, rat liver glucose-6-phosphate dehydrogenase (DG-6-P), rat liver and skeletal muscle phosphofructokinase were selected as potential targets for in vitro testing of the hypoglycemic activity of lupane triterpenoids.
Surprising results were obtained by examining the effect of lupane triterpenoids on glucose-6-phosphate activity. […] In both cases, the observed effects were dose-dependent. […] Table 1. Effect of lupane triterpenoids on DG-6-P activity in 5.6-fold purified rat liver

Test [3] relates to Wistar rats. Nature of the test: Blood glucose in rats with glucose-induced hyperglycemia (OGTT-2 / OGTT-4). In kind it is in vivo. Conditions: compared to control animals. The protocol: To study the effect of betulin, 3,28-diacetate betulin, betulinic acid and lupeol on blood glucose levels in rats with induced hyperglycemia, the animals received 2 hours prior to glucose administration, test substances at doses of 100 or 1000 mg/kg. Hyperglycaemia was caused by oral administration of a 40% glucose solution at a dose of 2 g/kg (OGTT-2) or 4 g/kg (OGTT-4). The study was conducted on Wistar rats weighing 220-250 g. All animals were subjected to two weeks of observation prior to the experiment to exclude infection. Rats were housed in standard cages, 5 individuals in each. […] The animals had free access to water and standard laboratory feed ad libitum. Animals were randomized into 5 groups, 8 individuals each. Hyperglycaemia was caused by administration of a 40% glucose solution at doses of 2 or 4 g/kg. […] Blood glucose was determined with a Roche AccuCheck Active glucometer (USA) before and after glucose administration every 30 minutes for 2 hours and then every 60 minutes for 6 hours.

A further test relates to pancreatic islet β-cells. The test is described as follows: Insulin secretion by isolated Langerhans islets (enzyme immunoassay). In kind it is cell-based. Conditions: 10 µM, 30 minutes incubation, compared to the control group. As for the experimental part:
To study the effect of betulin and betulinic acid on insulin secretion by pancreatic islet β-cells, their solutions in DMSO were incubated with isolated Langerhans islands in concentrations of 10 µM for 30 minutes, after which the insulin content in the incubation medium was determined by enzyme immunoassay.
The strongest reaction was observed after 30 minutes of incubation in the presence of 10 µM lupane triterpenoids (Figure 1).

Test [4] deals with T2, Rat liver glycogen phosphorylase (Rattus norvegicus, UniProt P09811).
T2 construct: from tissue; host or cells: rat liver homogenates and post-mitochondrial fraction
T2 sequence (P09811 1-850): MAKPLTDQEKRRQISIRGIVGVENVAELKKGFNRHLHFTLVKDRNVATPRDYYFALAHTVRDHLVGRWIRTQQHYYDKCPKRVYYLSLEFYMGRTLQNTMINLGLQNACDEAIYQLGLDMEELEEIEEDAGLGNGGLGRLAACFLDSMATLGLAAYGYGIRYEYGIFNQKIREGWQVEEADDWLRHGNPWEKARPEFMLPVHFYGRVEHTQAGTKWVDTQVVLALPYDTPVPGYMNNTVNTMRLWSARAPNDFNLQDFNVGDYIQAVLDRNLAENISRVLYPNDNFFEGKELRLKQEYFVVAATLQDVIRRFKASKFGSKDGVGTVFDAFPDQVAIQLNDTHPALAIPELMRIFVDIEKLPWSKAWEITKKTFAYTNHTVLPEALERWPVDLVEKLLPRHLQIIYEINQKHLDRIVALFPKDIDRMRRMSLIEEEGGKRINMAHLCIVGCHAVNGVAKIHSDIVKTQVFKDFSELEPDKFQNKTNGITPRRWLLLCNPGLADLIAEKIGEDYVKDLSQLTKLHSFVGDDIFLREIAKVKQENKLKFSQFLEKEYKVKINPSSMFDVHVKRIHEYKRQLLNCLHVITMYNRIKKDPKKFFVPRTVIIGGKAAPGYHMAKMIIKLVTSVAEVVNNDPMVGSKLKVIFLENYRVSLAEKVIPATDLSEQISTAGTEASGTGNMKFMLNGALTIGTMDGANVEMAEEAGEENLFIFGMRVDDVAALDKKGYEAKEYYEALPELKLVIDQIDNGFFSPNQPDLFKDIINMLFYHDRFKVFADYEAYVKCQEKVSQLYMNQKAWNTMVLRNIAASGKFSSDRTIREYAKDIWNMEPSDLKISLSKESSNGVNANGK
Nature of the test: Effect on glycogen phosphorylase activity in rat liver homogenates and post-mitochondrial fraction. In kind it is biochemical.
Excerpt: as §1

In test [5] the test system is Wistar rats. Nature of the test: Pancreatic islet morphometry in rats with alloxan-induced diabetes, 30 days treatment. The format is in vivo. The protocol: The possible cytoprotective effect of lupane triterpenoids on the functional state of the pancreas in alloxan-induced diabetes in rats was evaluated. Alloxane was used to induce diabetes, which causes damage to the necrotic islet type pancreatic apparatus due to selective accumulation in β-cells and induction of massive free radical generation. The study was conducted on Wistar rats weighing 220-250 g. All animals were subjected to two weeks of observation prior to the experiment to exclude infection. Rats were housed in standard cages, 5 individuals in each. […] The animals had free access to water and standard laboratory feed ad libitum. Diabetes was caused by a single intraperitoneal administration of alloxan at a dose of 170 mg/kg bw. The development of diabetes was observed on the basis of the main symptoms (polydipsia, polyphagia), glycosuria and hyperglycemia. Animals with high glucose levels of at least 14 mmol/L were selected for the experiment. Animals were randomized into 8 groups of 8 individuals each. The first group, the control group, was formed from healthy animals without diabetes. The control group (healthy animals) received NaCl 1 ml/kg; Group 2 - DM + Lupeol, at a dose of 100 mg/kg; Group 3 - DM + Betulonic acid, at a dose of 100 mg/kg; Group 4 - DM + 3,28-betulin diacetate, at a dose of 100 mg/kg; Group 5 - DM + Betulinic acid, at a dose of 50 mg/kg; Group 6 - DM + Betulinic acid, at a dose of 100 mg/kg; Group 7 - DM + Betulin, at a dose of 50 mg/kg; Group 8 - DM + Betulin, at a dose of 100 mg/kg.

The mark [6] stands for this setting: 50 mg/kg/day for 30 days, compared to the untreated group.

We go through six compounds from patent EP3730147A1, “PREPARATION WITH HYPOGLYCEMIC EFFECT” (Instytut Biotechnologii i Badan Medycznych "Biolamed" SP. Z …, priority 2019, dated 2020).

Marks after values point to notes of the source that are not given here.

T1 sequence (P05370 whole entry): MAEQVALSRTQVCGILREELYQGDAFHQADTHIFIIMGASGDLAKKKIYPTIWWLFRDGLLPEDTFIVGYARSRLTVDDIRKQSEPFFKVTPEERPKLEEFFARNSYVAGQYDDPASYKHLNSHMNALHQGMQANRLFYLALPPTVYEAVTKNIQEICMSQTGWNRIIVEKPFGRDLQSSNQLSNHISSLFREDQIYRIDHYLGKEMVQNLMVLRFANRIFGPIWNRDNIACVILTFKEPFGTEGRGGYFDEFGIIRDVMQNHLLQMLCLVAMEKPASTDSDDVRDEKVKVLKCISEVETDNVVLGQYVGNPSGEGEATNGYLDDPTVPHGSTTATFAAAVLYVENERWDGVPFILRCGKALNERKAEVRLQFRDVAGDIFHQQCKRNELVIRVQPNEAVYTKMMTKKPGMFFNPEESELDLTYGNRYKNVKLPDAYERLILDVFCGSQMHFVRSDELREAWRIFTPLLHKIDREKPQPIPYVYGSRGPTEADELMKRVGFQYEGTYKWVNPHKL

For `C=C(C)[C@@H]1CC[C@]2(COC(C)=O)CC[C@]3(C)[C@H](CC[C@@H]4[C@@]5(C)CC[C@H](OC(C)=O)C(C)(C)[C@@H]5CC[C@]43C)[C@@H]12` [3,28-betulin diacetate], in the test with Wistar rats [1] (blood collection time 5 hours), the Glucose concentration was 8,51±0,52 mmol/l. For the same compound, in test [2] (5 µM), the “E (DG-6-P activity)” value is listed as 0,158±0,002 and the remaining activity at 5 µM was found to be 75%. Moreover, in test [2] (25 µM), the “E (DG-6-P activity)” value is on record as 0,111±0,008 and the remaining activity at 25 µM amounted to 52.8%.
Consider `CC1(C)CC[C@]23CC[C@]4(C)[C@H](CC[C@@H]5[C@@]6(C)CC[C@H](O)C(C)(C)[C@@H]6CC[C@]54C)[C@H]2[C@H]1OC3` [Allobetulin], for which, in test [2] (5 µM), the “E (DG-6-P activity)” value was 0,151±0,004 and the remaining activity at 5 µM turned out to be 72%. In test [2] (25 µM), the “E (DG-6-P activity)” value is 0,103±0,002 and the remaining activity at 25 µM was 49%.
Take `C=C(C)[C@@H]1CC[C@]2(CO)CC[C@]3(C)[C@H](CC[C@@H]4[C@@]5(C)CC[C@H](O)C(C)(C)[C@@H]5CC[C@]43C)[C@@H]12` [Betulin]: in the test on Wistar rats [1], the “time after glucose administration at which glucose indicators normalized” value is 4 h. Besides, the Glucose concentration in the test on Wistar rats [1] (blood collection time 0 hours) is reported as 10,82±0,31 mmol/l. Moreover, the Glucose concentration with Wistar rats [1] (blood collection time 2 hours) is recorded as 22,61±0,4 mmol/l. The Glucose concentration in the test on Wistar rats [1] (blood collection time 5 hours) is 6,01±0,78 mmol/l. Moreover, in the test with Wistar rats [3], the “reduction in blood glucose levels at the peak of hyperglycemia” value was 30-35%. Moreover, in the test on pancreatic islet β-cells, the “insulin secretion by pancreatic islet β-cells” value is on record as “statistically significantly increase”. For the same compound, the glycogen phosphorylase activity entry in test [4] was “greatest inhibitory effect”. Also, the “area of Langerhans islets and their number” value in the test with Wistar rats [5] (50 mg/kg/day for 30 days) is on record as “tendency to increase”. In the test on Wistar rats [5] (setting [6]), the “increase of the number of β-cells in the islets” value was 25-35% and the islet diameter increase is 10-15%. Moreover, the “morphological picture of the pancreas” value in the test on Wistar rats [5] (100 mg/kg/day for 30 days, compared to the untreated group) is “significant improvement”. Also, in test [2] (5 µM), the “E (DG-6-P activity)” value is given as 0,149±0,004 and the remaining activity at 5 µM turned out to be 71%. Also, in test [2] (25 µM), the “E (DG-6-P activity)” value is 0,100±0,002 and the remaining activity at 25 µM worked out at 47.6%.
For the compound `C=C(C)[C@@H]1CC[C@]2(C(=O)O)CC[C@]3(C)[C@H](CC[C@@H]4[C@@]5(C)CC[C@H](O)C(C)(C)[C@@H]5CC[C@]43C)[C@@H]12` [Betulinic acid], the “time after glucose administration at which glucose indicators normalized” value in the test with Wistar rats [1] was determined as 4 h. In addition, the figures for the Glucose concentration in the test with Wistar rats [1] (blood collection time 0 hours), in the test with Wistar rats [1] (blood collection time 2 hours) and with Wistar rats [1] (blood collection time 5 hours) were 10,12±0,70 mmol/l, 25,64±1,50 mmol/l and 7,88±1,30* * mmol/l, respectively. For the same compound, the “reduction in blood glucose levels at the peak of hyperglycemia” value in the test with Wistar rats [3] is reported as 30-35%. Further, in the test with Wistar rats [5] (setting [6]), the “increase of the number of β-cells in the islets” value is 25-35%. Moreover, in the test with Wistar rats [5] (setting [6]), the islet diameter increase is listed as 10-15%. Further, the remaining activity at 5 µM in test [2] (5 µM) stood at 68.8%. Besides, the remaining activity at 25 µM in test [2] (25 µM) worked out at 44.2%.
As to `C=C(C)[C@@H]1CC[C@]2(C(=O)O)CC[C@]3(C)[C@H](CC[C@@H]4[C@@]5(C)CCC(=O)C(C)(C)[C@@H]5CC[C@]43C)[C@@H]12` [Betulonic acid], the Glucose concentration with Wistar rats [1] (blood collection time 0 hours) is 10,32±0,77 mmol/l; in the test with Wistar rats [1] (blood collection time 2 hours), 18,5±0,32 mmol/l; in the test with Wistar rats [1] (blood collection time 5 hours), 6,52±0,7 mmol/l. The glycogen phosphorylase activity result in test [4] is given as “greatest inhibitory effect”. In addition, the “E (DG-6-P activity)” value is listed as 0,148±0,003 in test [2] (5 µM) and 0,109±0,007 in test [2] (25 µM). Moreover, in test [2] (5 µM), the remaining activity at 5 µM was 70.3%. Besides, the remaining activity at 25 µM in test [2] (25 µM) was 51.9%.
For `C=C(C)[C@@H]1CC[C@]2(C)CC[C@]3(C)[C@H](CC[C@@H]4[C@@]5(C)CC[C@H](O)C(C)(C)[C@@H]5CC[C@]43C)[C@@H]12` [Lupeol], in the test with Wistar rats [1] (blood collection time 5 hours), the Glucose concentration is on record as 9,38±0,75 mmol/l. Besides, in test [2] (5 µM), the “E (DG-6-P activity)” value was 0,143±0,005 and the remaining activity at 5 µM stood at 68%. Also, in test [2] (25 µM), the “E (DG-6-P activity)” value is given as 0,113±0,009 and the remaining activity at 25 µM was found to be 53.6%.
